# From ChEMBL document CHEMBL2417445, “Access to 7β-analogs of codeine with mixed μ/δ agonist activity via 6,7-α-epoxide opening” (Bioorg Med Chem Lett, 2013)
# pEC50: −log10 of the molar value.
# Columns and labels:
# [1] = molecular target: Mu-type opioid receptor (Mus musculus) (UniProt P42866); assay: Activation of mouse MOR assessed as inhibition of forskolin-stimulated cAMP accumulation after 30 mins by cell based TR-FRET assay relative to DAMGO; type: functional
# [2] = molecular target: T1, Delta-type opioid receptor (Homo sapiens, UniProt P41143); assay: Activation of human DOR assessed as inhibition of forskolin-stimulated cAMP accumulation after 30 mins by cell based TR-FRET assay relative to DPDPE; type: functional
# T1 sequence (P41143 whole entry): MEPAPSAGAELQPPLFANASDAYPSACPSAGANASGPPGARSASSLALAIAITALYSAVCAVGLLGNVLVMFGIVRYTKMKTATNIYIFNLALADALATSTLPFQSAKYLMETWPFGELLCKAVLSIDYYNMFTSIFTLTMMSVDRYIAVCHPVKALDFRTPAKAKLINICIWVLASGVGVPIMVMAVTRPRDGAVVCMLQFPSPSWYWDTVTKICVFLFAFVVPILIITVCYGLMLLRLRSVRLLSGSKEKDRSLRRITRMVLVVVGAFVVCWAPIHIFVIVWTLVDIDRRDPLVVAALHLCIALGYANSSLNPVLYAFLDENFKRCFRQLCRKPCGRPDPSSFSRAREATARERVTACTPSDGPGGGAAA
# Mu-type opioid receptor [3] = molecular target: Mu-type opioid receptor (Mus musculus, UniProt P42866); assay: Agonist activity at mouse MOR assessed as inhibition of forskolin-stimulated cAMP accumulation after 30 mins by cell based TR-FRET assay; type: functional
# Sequence of Mu-type opioid receptor (Mus musculus, UniProt P42866) (P42866 whole entry): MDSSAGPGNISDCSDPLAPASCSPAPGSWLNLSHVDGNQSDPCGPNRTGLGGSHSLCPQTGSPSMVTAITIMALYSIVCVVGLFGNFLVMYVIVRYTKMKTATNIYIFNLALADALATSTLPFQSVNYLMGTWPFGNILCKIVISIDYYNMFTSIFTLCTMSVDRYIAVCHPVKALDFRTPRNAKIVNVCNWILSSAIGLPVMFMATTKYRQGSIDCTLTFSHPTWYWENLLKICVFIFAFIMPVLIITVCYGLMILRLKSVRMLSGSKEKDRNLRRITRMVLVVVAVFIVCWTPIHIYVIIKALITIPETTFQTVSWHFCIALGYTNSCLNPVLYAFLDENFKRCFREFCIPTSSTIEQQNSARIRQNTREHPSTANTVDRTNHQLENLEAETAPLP
# [4] = molecular target: Kappa-type opioid receptor (Mus musculus, UniProt P33534); assay: Agonist activity at mouse KOR assessed as inhibition of forskolin-stimulated cAMP accumulation after 30 mins by cell based TR-FRET assay; type: functional
# Sequence of Kappa-type opioid receptor (Mus musculus, UniProt P33534) (P33534 whole entry): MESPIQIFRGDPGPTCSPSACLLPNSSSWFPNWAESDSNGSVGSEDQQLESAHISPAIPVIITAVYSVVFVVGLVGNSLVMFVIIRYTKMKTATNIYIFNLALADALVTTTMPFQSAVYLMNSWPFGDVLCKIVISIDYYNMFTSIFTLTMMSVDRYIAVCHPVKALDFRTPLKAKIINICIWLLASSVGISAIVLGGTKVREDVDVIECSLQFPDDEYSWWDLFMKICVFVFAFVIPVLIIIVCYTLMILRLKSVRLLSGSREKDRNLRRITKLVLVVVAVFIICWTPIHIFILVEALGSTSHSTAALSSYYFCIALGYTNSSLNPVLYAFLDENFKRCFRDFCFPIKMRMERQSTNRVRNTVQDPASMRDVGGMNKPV
# Homo sapiens [5] = species on record: Homo sapiens; assay: Selectivity ratio of EC50 for human KOR to EC50 for human DOR
# Homo sapiens [6] = species on record: Homo sapiens; assay: Selectivity ratio of EC50 for human KOR to EC50 for human MOR
# [7] = molecular target: Kappa-type opioid receptor (Homo sapiens, UniProt P41145); type: functional, cell-based
# Sequence of Kappa-type opioid receptor (Homo sapiens, UniProt P41145) (P41145 whole entry): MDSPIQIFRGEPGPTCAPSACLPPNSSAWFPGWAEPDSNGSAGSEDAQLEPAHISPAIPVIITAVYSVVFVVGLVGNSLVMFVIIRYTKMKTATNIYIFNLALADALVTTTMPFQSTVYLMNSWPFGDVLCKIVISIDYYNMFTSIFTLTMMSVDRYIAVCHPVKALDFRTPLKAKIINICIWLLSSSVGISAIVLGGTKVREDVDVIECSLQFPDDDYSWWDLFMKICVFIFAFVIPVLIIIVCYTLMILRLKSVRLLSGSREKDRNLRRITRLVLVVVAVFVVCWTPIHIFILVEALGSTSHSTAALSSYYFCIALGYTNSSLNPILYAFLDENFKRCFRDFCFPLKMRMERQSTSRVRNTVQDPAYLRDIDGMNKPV
# Description: Agonist activity at human KOR assessed as inhibition of forskolin-stimulated cAMP accumulation after 30 mins by cell based TR-FRET assay
# Mu-type opioid receptor [8] = molecular target: T2, Mu-type opioid receptor (Homo sapiens, UniProt P35372); assay: Agonist activity at human MOR assessed as inhibition of forskolin-stimulated cAMP accumulation after 30 mins by cell based TR-FRET assay; type: functional
# T2 sequence (P35372 whole entry): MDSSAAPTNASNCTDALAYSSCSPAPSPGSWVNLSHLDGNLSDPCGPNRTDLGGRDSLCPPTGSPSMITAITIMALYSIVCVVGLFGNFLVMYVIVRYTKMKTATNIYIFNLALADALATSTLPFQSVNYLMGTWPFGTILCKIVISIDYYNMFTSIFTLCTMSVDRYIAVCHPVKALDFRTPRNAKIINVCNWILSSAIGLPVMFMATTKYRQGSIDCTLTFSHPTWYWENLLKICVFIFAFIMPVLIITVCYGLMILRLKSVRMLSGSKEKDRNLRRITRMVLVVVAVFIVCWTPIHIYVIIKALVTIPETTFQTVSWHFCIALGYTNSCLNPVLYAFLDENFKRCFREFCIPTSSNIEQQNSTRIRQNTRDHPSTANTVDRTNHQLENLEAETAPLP
# [9] = molecular target: T1, Delta-type opioid receptor; assay: Agonist activity at human DOR assessed as inhibition of forskolin-stimulated cAMP accumulation after 30 mins by cell based TR-FRET assay; type: functional
# Mu-type opioid receptor [10] = molecular target: T2, Mu-type opioid receptor; assay: Ratio of morphine EC50 to compound EC50 for human MOR
# Sequence of Mu-type opioid receptor (Mus musculus) (P42866 whole entry): as the sequence (P42866 whole entry) above
Structure (SMILES),inhibition [1],inhibition [2],pEC50 (Mu-type opioid receptor [3]),pEC50 [4],Ratio EC50 (Homo sapiens [5]),Ratio EC50 (Homo sapiens [6]),pEC50 [7],pEC50 (Mu-type opioid receptor [8]),pEC50 [9],Ratio EC50 (Mu-type opioid receptor [10])
COc1ccc2c3c1O[C@H]1[C@@H](OC)[C@H](C)C[C@H]4[C@@H](C2)N(C)CC[C@@]341,92%,94%,6.10,4.30,13,10,4.49,5.49,5.60,–
COc1ccc2c3c1O[C@H]1C(=O)CC[C@@]4(O)[C@@H](C2)N(C)CC[C@]314 [OXYCODONE],97%,93%,6.80,4.80,–,–,–,–,–,–
C[C@@H](NC(=O)[C@@H](N)Cc1ccc(O)cc1)C(=O)NCC(=O)N(C)[C@@H](Cc1ccccc1)C(=O)NCCO [DAMGO],–,99%,–,–,–,–,–,–,–,–
COc1ccc2c3c1O[C@H]1[C@@H](O)[C@H](C)C[C@H]4[C@@H](C2)N(C)CC[C@@]341,97%,97%,6.22,4.49,8,13,4.60,5.70,5.49,–
C[C@@H]1C[C@H]2[C@H]3Cc4ccc(O)c5c4[C@@]2(CCN3C)[C@@H](O5)[C@H]1O,99%,107%,8.00,5.80,20,80,5.80,7.70,7.10,2
COc1ccc2c3c1O[C@H]1[C@@H](O)[C@H](F)C[C@H]4[C@@H](C2)N(C)CC[C@@]341,79%,90%,5.10,–,1,2,–,4.40,4.10,–
COc1cc(C)c2c3c1O[C@H]1[C@@H](O)[C@H](C)C[C@H]4[C@@H](C2)N(C)CC[C@@]341,77%,73%,5.70,4.30,1,3,–,5.30,4.80,–
COc1ccc2c3c1O[C@H]1[C@@H](O)[C@H](O)C[C@H]4[C@@H](C2)N(C)CC[C@@]341,96%,117%,5.20,3.80,1,8,3.90,4.80,4.00,–
COc1cc(C)c2c3c1O[C@H]1[C@H](F)[C@H](C)C[C@H]4[C@@H](C2)N(C)CC[C@@]341,78%,86%,6.10,5.00,1,1,5.30,5.49,5.49,–
CN1CC[C@]23c4c5ccc(O)c4O[C@H]2[C@@H](O)C=C[C@H]3[C@H]1C5,97%,69%,–,–,–,–,–,–,–,–
COc1ccc2c3c1O[C@H]1[C@@H](O)[C@H](OC)C[C@H]4[C@@H](C2)N(C)CC[C@@]341,86%,84%,5.40,–,4,3,4.30,4.80,4.89,–
